“And” between values parts separate entries of the source, which are not always exact repeats. Equal values may be shown once. Inconclusive results and toxic doses are left out.

The subject of the test is P388 leukemia ip, CD2F1 mice, survival T/C. Kind of test: NCI In Vivo Anticancer Drug Screen. Data for tumor model P388 Leukemia (intraperitoneal) in CD2F1 (CDF1) mice. As to conditions: endpoint: median survival time, higher = longer survival. The essentials: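 Mice carrying the transplanted tumor received test compound or vehicle. Survival was recorded in each group, and the value is the treated-group measurement divided by that of the vehicle-treated control group.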

The mark [1] stands for this setting: dose: 50.0 mg/kg/injection, schedule: Q01DX009 (ip), vehicle: saline with Tween-80.
[2] abbreviates: dose: 100.0 mg/kg/injection, schedule: Q01DX009 (ip), vehicle: saline with Tween-80.
[3] abbreviates: dose: 200.0 mg/kg/injection, schedule: Q01DX009 (ip), vehicle: saline with Tween-80.
[4] abbreviates: dose: 12.5 mg/kg/injection, schedule: Q01DX005 (ip), vehicle: Klucel (hydroxypropylcellulose) (HPC).
Setting [5] is: dose: 25.0 mg/kg/injection, schedule: Q01DX005 (ip), vehicle: Klucel (hydroxypropylcellulose) (HPC).
The mark [6] stands for this setting: dose: 50.0 mg/kg/injection, schedule: Q01DX005 (ip), vehicle: Klucel (hydroxypropylcellulose) (HPC).
Setting [7] is: dose: 60.0 mg/kg/injection, schedule: Q01DX005 (ip), vehicle: saline with Tween-80.
The mark [8] stands for this setting: dose: 120.0 mg/kg/injection, schedule: Q01DX005 (ip), vehicle: saline with Tween-80.
Where [9] appears, read: dose: 240.0 mg/kg/injection, schedule: Q01DX005 (ip), vehicle: saline with Tween-80.
Setting [10] is: dose: 100.0 mg/kg/injection, schedule: Q01DX009 (ip), vehicle: Klucel (hydroxypropylcellulose) (HPC).
The mark [11] stands for this setting: dose: 200.0 mg/kg/injection, schedule: Q01DX009 (ip), vehicle: Klucel (hydroxypropylcellulose) (HPC).
[12] abbreviates: dose: 100.0 mg/kg/injection, schedule: Q01DX005 (ip), vehicle: Klucel (hydroxypropylcellulose) (HPC).
Where [13] appears, read: dose: 100.0 mg/kg/injection, schedule: Q04DX003 (ip), vehicle: saline.

As to `CC1OC2CC(=O)OC2C2=C1C(=O)c1cc(-c3cc(O)c4c(c3)C(=O)C3=C(C4=O)C4OC(=O)CC4OC3C)cc(O)c1C2=O` (stereo unspecified), the T/C is, setting by setting: (dose: 0.95 mg/kg/injection, schedule: Q01DX005 (ip), vehicle: DMSO) 98 % of control; (dose: 1.9 mg/kg/injection, schedule: Q01DX005 (ip), vehicle: DMSO) 107 % of control; (dose: 3.8 mg/kg/injection, schedule: Q01DX005 (ip), vehicle: DMSO) 99 % of control.
With `CC1(C)CC(OC(=O)c2c3ccccc3c3ccc4cccc5ccc2c3c54)CC(C)(C)N1O`, the T/C is 91 % of control under setting [1], 91 % of control under setting [2] and 90 % of control under setting [3].
Consider `COc1ccc2ncc(COC(=O)NC3CCCCC3)c(COC(=O)NC3CCCCC3)c2c1`, for which the T/C by setting is: under setting [4], 91 % of control; under setting [5], 94 % of control; under setting [6], 88 % of control.
With `NC(=O)Cn1ccnc1[N+](=O)[O-]`, the T/C was 93 % of control (dose: 12.5 mg/kg/injection, schedule: Q01DX009 (ip), vehicle: water); 99 % of control (dose: 25.0 mg/kg/injection, schedule: Q01DX009 (ip), vehicle: water); 90 % of control (dose: 50.0 mg/kg/injection, schedule: Q01DX009 (ip), vehicle: water); 118 % of control (dose: 100.0 mg/kg/injection, schedule: Q01DX009 (ip), vehicle: water); 107 % of control (dose: 200.0 mg/kg/injection, schedule: Q01DX009 (ip), vehicle: water).
For `CC(C)(C)c1ccc(C(C)(C)C)c(N2C(=O)c3ccc4c5ccc6c7c(ccc(c8ccc(c3c48)C2=O)c75)C(=O)N(c2cc(C(C)(C)C)ccc2C(C)(C)C)C6=O)c1`, the T/C reads like this: under setting [7], 95 % of control; under setting [8], 90 % of control; under setting [9], 99 % of control.
`[O-]/[N+](=C\c1ccccc1)CCO`: the T/C by setting is: under setting [1], 97 % of control; under setting [2], 101 % of control; under setting [3], 106 % of control.
`CC(C)(C)P(O)(=S)c1ccccc1` (stereo unspecified) (tested in a mixture with another compound): the T/C is 102 % of control (dose: 100.0 mg/kg/injection, schedule: Q04DX003 (ip), vehicle: Klucel (hydroxypropylcellulose) (HPC)); 102 % of control (dose: 200.0 mg/kg/injection, schedule: Q04DX003 (ip), vehicle: Klucel (hydroxypropylcellulose) (HPC)); 100 % of control (dose: 400.0 mg/kg/injection, schedule: Q04DX003 (ip), vehicle: Klucel (hydroxypropylcellulose) (HPC)).
Turning to `c1ccc2c(c1)nc1cc(NC3CCCCC3)c(=NC3CCCCC3)cc-1n2C1CCCCC1`, the T/C was 87 % of control under setting [7], 91 % of control under setting [8] and 89 % of control under setting [9].
`O=[N+]([O-])c1ccc(S(=O)(=O)NCCSSCCNS(=O)(=O)c2ccc([N+](=O)[O-])cc2)cc1`: the T/C is 90 % of control (dose: 50.0 mg/kg/injection, schedule: Q01DX009 (ip), vehicle: Klucel (hydroxypropylcellulose) (HPC)); 93 % of control under setting [10]; 90 % of control under setting [11].
For the compound `COc1ccc(C(CCO)c2cc3c(cc2OC)OCO3)cc1` (stereo unspecified), the T/C is 101 % of control (dose: 50.0 mg/kg/injection, schedule: Q01DX005 (ip), vehicle: distilled water + Tween-80); 101 % of control (dose: 100.0 mg/kg/injection, schedule: Q01DX005 (ip), vehicle: distilled water + Tween-80); 98 % of control (dose: 200.0 mg/kg/injection, schedule: Q01DX005 (ip), vehicle: distilled water + Tween-80).
Consider `CCC(C)C1CCCCC1` (stereo unspecified), for which the T/C is 104 % of control under setting [10]; 100 % of control under setting [11]; 101 % of control (dose: 400.0 mg/kg/injection, schedule: Q01DX009 (ip), vehicle: Klucel (hydroxypropylcellulose) (HPC)).
Take `Cc1ccc(NC(=O)N2CC2)cc1NC(=O)N1CC1`: the T/C by setting is: (dose: 0.78 mg/kg/injection, schedule: Q01DX009 (ip), vehicle: Klucel (hydroxypropylcellulose) (HPC)) 112 % of control; (dose: 3.12 mg/kg/injection, schedule: Q01DX009 (ip), vehicle: Klucel (hydroxypropylcellulose) (HPC)) 154 % of control; (dose: 6.25 mg/kg/injection, schedule: Q01DX009 (ip), vehicle: Klucel (hydroxypropylcellulose) (HPC)) 107 % of control and 90 % of control.
As for `CCCCS(=O)(=O)C(C)(Cl)C(=O)OCC` (stereo unspecified), the T/C was 100 % of control (dose: 25.0 mg/kg/injection, schedule: Q01DX001 (ip), vehicle: saline with Tween-80); 100 % of control (dose: 50.0 mg/kg/injection, schedule: Q01DX001 (ip), vehicle: saline with Tween-80); 106 % of control and 93 % of control (dose: 100.0 mg/kg/injection, schedule: Q01DX001 (ip), vehicle: saline with Tween-80).
In the case of `Cc1[nH]c(=O)cc2c1[nH]c1ccccc12`, the T/C is 96 % of control under setting [4], 100 % of control under setting [6] and 98 % of control under setting [12].
`CN(C)CCc1ccccn1`: the T/C was 101 % of control (dose: 25.0 mg/kg/injection, schedule: Q04DX003 (ip), vehicle: saline); 115 % of control (dose: 50.0 mg/kg/injection, schedule: Q04DX003 (ip), vehicle: saline); 94 % of control under setting [13].
Turning to `O=C1CSC(c2ccccn2)N1CCN1C(=O)CSC1c1ccccn1` (stereo unspecified), the T/C runs as follows: under setting [6], 94 % of control; under setting [12], 96 % of control; (dose: 100.0 mg/kg/injection, schedule: Q04DX002 (ip), vehicle: saline with Tween-80) 97 % of control; (dose: 200.0 mg/kg/injection, schedule: Q01DX005 (ip), vehicle: Klucel (hydroxypropylcellulose) (HPC)) 97 % of control; (dose: 200.0 mg/kg/injection, schedule: Q04DX002 (ip), vehicle: saline with Tween-80) 102 % of control; (dose: 400.0 mg/kg/injection, schedule: Q04DX002 (ip), vehicle: saline with Tween-80) 93 % of control.
Take `COC(=O)CC(OC)OC`: the T/C was 100 % of control under setting [2]; 91 % of control under setting [13]; 113 % of control under setting [3]; 91 % of control (dose: 200.0 mg/kg/injection, schedule: Q04DX003 (ip), vehicle: saline); 113 % of control (dose: 400.0 mg/kg/injection, schedule: Q01DX009 (ip), vehicle: saline with Tween-80); 95 % of control (dose: 400.0 mg/kg/injection, schedule: Q04DX003 (ip), vehicle: saline).
For `CC1C(=O)C23CC1CCC2C12COC(O)C1C(C)(C)C(O)CC2OC3=O` (stereo unspecified), the T/C was 100 % of control under setting [4]; 94 % of control under setting [5]; 100 % of control under setting [6]; 96 % of control (dose: 61.5 mg/kg/injection, schedule: Q01DX005 (ip), vehicle: Klucel (hydroxypropylcellulose) (HPC)); 102 % of control under setting [12]; 106 % of control (dose: 123.0 mg/kg/injection, schedule: Q01DX005 (ip), vehicle: Klucel (hydroxypropylcellulose) (HPC)). Besides, under “dose: 246.0 mg/kg/injection, schedule: Q01DX005 (ip), vehicle: Klucel (hydroxypropylcellulose) (HPC)”, the T/C was 98 % of control.
On to `CCC/C=C/C1SCC(=O)N1c1nncs1` (stereo unspecified), for which the T/C is 102 % of control (dose: 50.0 mg/kg/injection, schedule: Q01DX005 (ip), vehicle: saline with Tween-80); 103 % of control (dose: 100.0 mg/kg/injection, schedule: Q01DX005 (ip), vehicle: saline with Tween-80); 117 % of control (dose: 200.0 mg/kg/injection, schedule: Q01DX005 (ip), vehicle: saline with Tween-80).
As for `O=C1c2ccccc2NC2(C(=O)Nc3ccccc32)N1N1CCOCC1` (stereo unspecified), the T/C is 100 % of control under setting [4], 100 % of control under setting [5] and 101 % of control under setting [6].
In the case of `CC(C)CCC1=CC(=O)C(CCC(C)C)=CC1=O`, the T/C is, setting by setting: (dose: 3.12 mg/kg/injection, schedule: Q01DX009 (ip), vehicle: saline with Tween-80) 104 % of control; (dose: 6.25 mg/kg/injection, schedule: Q01DX009 (ip), vehicle: saline with Tween-80) 104 % of control; (dose: 12.5 mg/kg/injection, schedule: Q01DX009 (ip), vehicle: saline with Tween-80) 106 % of control; (dose: 25.0 mg/kg/injection, schedule: Q01DX009 (ip), vehicle: saline with Tween-80) 101 % of control.
